We go through 27 compounds from ChEMBL document CHEMBL2146467, “Generation and exploration of new classes of antitubercular agents: The optimization of oxazolines, oxazoles, thiazolines, thiazoles to imidazo[1,2-a]pyridines and isomeric 5,6-fused scaffolds” (Bioorg Med Chem, 2012).

SMILES strings stand for the structures.

Series [1] can be described thus: Chemical stability in simulated gastric fluid assessed as compound remaining at 50 uM after 15 mins by LC/MS analysis. The class given is physicochemical. The conditions noted are these: read-out: Stability.
Series [2] in a line: Metabolic stability in Sprague-Dawley rat liver microsomes assessed as compound remaining at 20 uM after 15 mins by LC/MS analysis. The series is classed as ADME, Microsome. The conditions noted are these: read-out: Stability. (In general: Microsomes from liver hold many membrane-bound enzymes, among them those of drug oxidation.)

For the compound `C[C@H](OC(=O)c1coc(-c2ccccc2)n1)c1ccccc1`, the remaining at 0.25 h, 50 µM in series [1] was 5%. The remaining at 0.25 h, 20 µM in series [2] worked out at 5%.
Regarding `O=C(Oc1c(Cl)cc(Cl)cc1Cl)c1coc(-c2ccccc2)n1`, the remaining at 0.25 h, 50 µM in series [1] is 1.3%. Moreover, the remaining at 0.25 h, 20 µM in series [2] was found to be 15.5%.
In the same order, the values of `O=C(Oc1ccccc1C(F)(F)F)c1coc(-c2ccccc2)n1` are 1.2% and 10.7%.
In the same order, the values of `CCCCCCCCOC(=O)c1coc(-c2ccccc2)n1` are 1.1% and 13.1%.
In the same order, the values of `CC(C)(C)c1cccc(C(C)(C)C)c1OC(=O)c1coc(-c2ccccc2)n1` are 1.3% and 5.3%.
For `COc1ccccc1CNC(=O)c1c(C)nc2cc(C)ccn12`, the remaining at 0.25 h, 50 µM in series [1] was 100%. Moreover, the remaining at 0.25 h, 20 µM in series [2] was 41.6%.
In the same order, the values of `CCC(=O)c1ccccc1OC(=O)c1coc(-c2ccccc2)n1` are 1.8% and 8.7%.
In the same order, the values of `COc1ccc(-c2nc(C(=O)OCc3ccccc3)co2)cc1` are 2.1% and 11.8%.
In the same order, the values of `Cc1cc(C)c(OC(=O)c2coc(-c3ccccc3)n2)c(C)c1` are 1.4% and 22%.
In the case of `Cc1cc(C)c(COC(=O)c2coc(-c3ccccc3)n2)c(C)c1`, in series [1], the remaining at 0.25 h, 50 µM is 5.6%. Besides, in series [2], the remaining at 0.25 h, 20 µM worked out at 18.1%.
In the same order, the values of `O=C(OCc1ccccc1)c1coc(-c2ccccc2OCc2ccccc2)n1` are 2.9% and 3.5%.
In the same order, the values of `CCc1ccccc1COC(=O)c1c(C)nc2cc(C)ccn12` are 100% and 37%.
In the same order, the values of `O=C(OCc1ccccc1)c1coc(-c2ccccc2Cl)n1` are 1.1% and 7.9%.
Take `CC(C)(C)c1ccccc1OC(=O)c1coc(-c2ccccc2)n1`: the remaining at 0.25 h, 50 µM in series [1] was 0.7%. Moreover, in series [2], the remaining at 0.25 h, 20 µM amounted to 6.9%.
In the same order, the values of `Cc1ccn2c(C(=O)NCc3ccc(Cl)cc3)c(C)nc2c1` are 94.3% and 80.7%.
In the same order, the values of `Cc1ccc(COC(=O)c2coc(-c3ccccc3)n2)c(C)c1` are 1.4% and 16.9%.
In the same order, the values of `O=C(Oc1ccc(Cl)cc1Cl)c1coc(-c2ccccc2)n1` are 0.8% and 17.3%.
For `O=C(OCC1CC1)c1coc(-c2ccccc2)n1`, the remaining at 0.25 h, 50 µM in series [1] is 1.5%. For the same compound, the remaining at 0.25 h, 20 µM in series [2] was determined as 3.3%.
In the same order, the values of `CCCc1ccccc1OC(=O)c1coc(-c2ccccc2)n1` are 0.9% and 5.4%.
For `O=C(Oc1cccc(C(F)(F)F)c1)c1coc(-c2ccccc2)n1`, the remaining at 0.25 h, 50 µM in series [1] is 5.5%. Further, in series [2], the remaining at 0.25 h, 20 µM was found to be 13%.
In the same order, the values of `O=C(OCc1ccccc1)[C@@H]1COC(c2ccc(F)c([N+](=O)[O-])c2)=N1` are 0.6% and 11.3%.
In the same order, the values of `Cc1cccc(OC(=O)c2coc(-c3ccccc3)n2)c1C` are 2% and 4.9%.
In the same order, the values of `O=C(Oc1ccccc1N1CCCC1)c1coc(-c2ccccc2)n1` are 0.1% and 11.2%.
Turning to `Cc1ccccc1COC(=O)c1coc(-c2ccccc2)n1`, the remaining at 0.25 h, 50 µM in series [1] was 3.1%. Also, the remaining at 0.25 h, 20 µM in series [2] was determined as 10.9%.
In the same order, the values of `CCC(C)c1ccccc1OC(=O)c1coc(-c2ccccc2)n1` (centres undefined) are 0.2% and 8.3%.
In the same order, the values of `Cc1ccccc1OC(=O)c1coc(-c2ccccc2)n1` are 1.5% and 13.4%.
In the same order, the values of `Cc1ccn2c(C(=O)NCc3ccccc3Cl)c(C)nc2c1` are 97.2% and 58.9%.
